Measured values: PubChem BioAssay AID248 (DTP/NCI, 2004)
Toxic doses and inconclusive results are not listed. Rule as the data show it: active = T/C of 150% or more; inactive = T/C below 125%.

Tested on: L1210 leukemia ip in BDF1 mice, survival T/C
Experiment: NCI In Vivo Anticancer Drug Screen. Data for tumor model L1210 Leukemia (intraperitoneal) in B6D2F1 (BDF1) mice
Details: endpoint: mean survival time, higher = longer survival
In short: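 Survival endpoint. Drug-treated group vs vehicle group, expressed as T divided by C. Tumor passaged by transplantation.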

[1] = dose: 50.0 mg/kg/injection, schedule: Q01DX009 (ip), vehicle: saline
[2] = dose: 100.0 mg/kg/injection, schedule: Q01DX009 (ip), vehicle: saline
[3] = dose: 100.0 mg/kg/injection, schedule: Q04DX003 (ip), vehicle: Klucel (hydroxypropylcellulose) (HPC)
[4] = dose: 200.0 mg/kg/injection, schedule: Q01DX009 (ip), vehicle: saline
[5] = dose: 200.0 mg/kg/injection, schedule: Q04DX003 (ip), vehicle: Klucel (hydroxypropylcellulose) (HPC)
[6] = dose: 100.0 mg/kg/injection, schedule: Q01DX009 (ip), vehicle: Klucel (hydroxypropylcellulose) (HPC)
[7] = dose: 200.0 mg/kg/injection, schedule: Q01DX009 (ip), vehicle: Klucel (hydroxypropylcellulose) (HPC)
[8] = dose: 400.0 mg/kg/injection, schedule: Q01DX009 (ip), vehicle: Klucel (hydroxypropylcellulose) (HPC)
[9] = dose: 400.0 mg/kg/injection, schedule: Q04DX003 (ip), vehicle: Klucel (hydroxypropylcellulose) (HPC)
[10] = dose: 100.0 mg/kg/injection, schedule: Q01DX009 (ip), vehicle: saline with Tween-80
[11] = dose: 200.0 mg/kg/injection, schedule: Q01DX009 (ip), vehicle: saline with Tween-80
[12] = dose: 400.0 mg/kg/injection, schedule: Q01DX009 (ip), vehicle: saline with Tween-80
[13] = dose: 100.0 mg/kg/injection, schedule: Q01DX001 (ip), vehicle: other
[14] = dose: 200.0 mg/kg/injection, schedule: Q01DX001 (ip), vehicle: other
[15] = dose: 400.0 mg/kg/injection, schedule: Q01DX001 (ip), vehicle: other
[16] = dose: 100.0 mg/kg/injection, schedule: Q01DX001 (ip), vehicle: carboxymethylcellulose (CMC)
[17] = dose: 200.0 mg/kg/injection, schedule: Q01DX001 (ip), vehicle: carboxymethylcellulose (CMC)
[18] = dose: 400.0 mg/kg/injection, schedule: Q01DX001 (ip), vehicle: carboxymethylcellulose (CMC)
[19] = dose: 100.0 mg/kg/injection, schedule: Q04DX003 (ip), vehicle: saline with Tween-80
[20] = dose: 200.0 mg/kg/injection, schedule: Q04DX003 (ip), vehicle: saline with Tween-80
[21] = dose: 400.0 mg/kg/injection, schedule: Q04DX003 (ip), vehicle: saline with Tween-80
[22] = dose: 100.0 mg/kg/injection, schedule: Q01DX001 (ip), vehicle: saline
[23] = dose: 200.0 mg/kg/injection, schedule: Q01DX001 (ip), vehicle: saline
[24] = dose: 400.0 mg/kg/injection, schedule: Q01DX001 (ip), vehicle: saline
[25] = dose: 400.0 mg/kg/injection, schedule: Q01DX009 (ip), vehicle: saline

Measured: T/C

O=C(O)/C=C/C(=O)Nc1cc(Cl)cc2c1-c1c(Cl)cc(Cl)cc1C2=O
inactive: [1] 94 % of control | [2] 94 % of control | [3] 98 % of control | [4] 96 % of control | [5] 98 % of control

CCOC(=O)CC(=Nc1ccccc1OC)C(=O)OCC
inactive: [6] 97 % of control | [3] 105 % of control | [7] 98 % of control | [5] 98 % of control | [8] 91 % of control | [9] 107 % of control

Cc1ccc([N+](=O)[O-])cc1NC(=O)COc1cc(Cl)c(Cl)cc1Cl
inactive: [10] 89 % of control | [11] 94 % of control | [12] 98 % of control

COC(=O)NS(=O)(=O)c1cccn1C
inactive: dose: 100.0 mg/kg/injection, schedule: Q01DX001 (ip), vehicle: Klucel (hydroxypropylcellulose) (HPC) 106 % of control | [3] 106 % of control | dose: 200.0 mg/kg/injection, schedule: Q01DX001 (ip), vehicle: Klucel (hydroxypropylcellulose) (HPC) 104 % of control | [5] 100 % of control | dose: 400.0 mg/kg/injection, schedule: Q01DX001 (ip), vehicle: Klucel (hydroxypropylcellulose) (HPC) 104 % of control | [9] 95 % of control

CCC(C)c1cc([N+](=O)[O-])cc([N+](=O)[O-])c1O (configuration not stated)
inactive: dose: 12.5 mg/kg/injection, schedule: Q04DX003 (ip), vehicle: Klucel (hydroxypropylcellulose) (HPC) 95 % of control | dose: 25.0 mg/kg/injection, schedule: Q04DX003 (ip), vehicle: Klucel (hydroxypropylcellulose) (HPC) 98 % of control | dose: 50.0 mg/kg/injection, schedule: Q04DX003 (ip), vehicle: Klucel (hydroxypropylcellulose) (HPC) 96 % of control

O=C(CCCCC(=O)Nc1cc(C(=O)Nc2ccc(C3=NCCN3)cc2)ccc1C(=O)Nc1ccc(C2=NCCN2)cc1)Nc1cc(C(=O)Nc2ccc(C3=NCCN3)cc2)ccc1C(=O)Nc1ccc(C2=NCCN2)cc1
inactive: dose: 1.25 mg/kg/injection, schedule: Q01DX Z (ip), vehicle: saline 90 % of control | dose: 2.5 mg/kg/injection, schedule: Q01DX Z (ip), vehicle: saline 95 % of control | dose: 5.0 mg/kg/injection, schedule: Q01DX Z (ip), vehicle: saline 88 % of control | dose: 10.0 mg/kg/injection, schedule: Q01DX Z (ip), vehicle: saline 101 % of control | dose: 15.0 mg/kg/injection, schedule: Q01DX Z (ip), vehicle: methylcellulose (MC) 103 % of control | dose: 30.0 mg/kg/injection, schedule: Q01DX Z (ip), vehicle: methylcellulose (MC) 110 % of control

CCS(=O)(=O)c1ccc(NC(=O)OC2CCCCCC2)cc1
inactive: [13] 91 % of control | [14] 91 % of control | [15] 93 % of control

O=C(CCN1CC2CCC(CC2)C1)c1csc2ccccc12
inactive: dose: 88.8 mg/kg/injection, schedule: Q01DX001 (ip), vehicle: carboxymethylcellulose (CMC) 93 % of control | [16] 91 % of control | dose: 133.4 mg/kg/injection, schedule: Q01DX001 (ip), vehicle: carboxymethylcellulose (CMC) 98 % of control | [17] 97 % of control | dose: 300.0 mg/kg/injection, schedule: Q01DX001 (ip), vehicle: carboxymethylcellulose (CMC) 95 % of control | [18] 107 % of control

O=C(C[n+]1ccccc1)CC(O)(C(F)(F)F)C(F)(F)F
inactive: [19] 104 % of control | [20] 103 % of control | [21] 98 % of control

O=C(Nc1ccc([N+](=O)[O-])cc1Cl)Oc1cccc2ccccc12
inactive: [6] 96 % of control | [3] 105 % of control | [7] 96 % of control | [5] 105 % of control | [8] 102 % of control | [9] 105 % of control

CCCCC[Si](C)(C)C
inactive: [22] 103 % of control | [23] 97 % of control | [24] 105 % of control

NCCOCCOCCN
inactive: [1] 108 % of control | [2] 87 % of control

Cc1ccccc1C(c1ccccc1C)c1ccccc1C(=O)O
inactive: [10] 103 % of control | [19] 105 % of control | [11] 100 % of control | [20] 93 % of control | [12] 97 % of control | [21] 98 % of control

CC(=O)N1CCn2nccc21
inactive: dose: 100.0 mg/kg/injection, schedule: Q01DX009 (ip), vehicle: water 103 % of control | dose: 100.0 mg/kg/injection, schedule: Q04DX003 (ip), vehicle: water 97 % of control | dose: 200.0 mg/kg/injection, schedule: Q01DX009 (ip), vehicle: water 112 % of control | dose: 200.0 mg/kg/injection, schedule: Q04DX003 (ip), vehicle: water 106 % of control | dose: 240.0 mg/kg/injection, schedule: Q01DX009 (ip), vehicle: saline 109 % of control | dose: 240.0 mg/kg/injection, schedule: Q01DX009 (ip), vehicle: water 110 % of control | [25] 122 % of control | dose: 400.0 mg/kg/injection, schedule: Q04DX003 (ip), vehicle: water 106 % of control | dose: 666.0 mg/kg/injection, schedule: Q01DX009 (ip), vehicle: saline 122 % of control | dose: 666.0 mg/kg/injection, schedule: Q01DX009 (ip), vehicle: water 90 % of control

O=C(Nc1cccc(Cl)c1)c1cc([N+](=O)[O-])ccc1O
inactive: dose: 5.0 mg/kg/injection, schedule: Q01DX001 (ip), vehicle: other 104 % of control | dose: 10.0 mg/kg/injection, schedule: Q01DX001 (ip), vehicle: other 104 % of control | dose: 10.0 mg/kg/injection, schedule: Q02DX010 (ip), vehicle: carboxymethylcellulose (CMC) 105 % of control | dose: 20.0 mg/kg/injection, schedule: Q01DX001 (ip), vehicle: other 104 % of control | dose: 20.0 mg/kg/injection, schedule: Q02DX010 (ip), vehicle: carboxymethylcellulose (CMC) 109 % of control | dose: 40.0 mg/kg/injection, schedule: Q01DX001 (ip), vehicle: other 101 % of control | dose: 40.0 mg/kg/injection, schedule: Q02DX010 (ip), vehicle: carboxymethylcellulose (CMC) 95 % of control | dose: 80.0 mg/kg/injection, schedule: Q01DX001 (ip), vehicle: other 95 % of control | dose: 80.0 mg/kg/injection, schedule: Q02DX010 (ip), vehicle: carboxymethylcellulose (CMC) 88 % of control | [13] 86 % of control | [14] 97 % of control | [15] 114 % of control

O=C(/C=C/c1ccco1)c1ccc(F)cc1
inactive: dose: 75.0 mg/kg/injection, schedule: Q01DX001 (ip), vehicle: saline 94 % of control | dose: 150.0 mg/kg/injection, schedule: Q01DX001 (ip), vehicle: saline 98 % of control | dose: 300.0 mg/kg/injection, schedule: Q01DX001 (ip), vehicle: saline 102 % of control

CCNc1ccccc1-c1nc2ccccc2[nH]1
inactive: dose: 50.0 mg/kg/injection, schedule: Q01DX009 (ip), vehicle: Klucel (hydroxypropylcellulose) (HPC) 93 % of control | [6] 100 % of control | [7] 102 % of control

CC(=Nc1ccccc1)C1=C(O)C(CC(C)C)NC1=O (configuration not stated)
inactive: dose: 50.0 mg/kg/injection, schedule: Q01DX001 (ip), vehicle: carboxymethylcellulose (CMC) 95 % of control | [16] 104 % of control | [17] 101 % of control | [18] 101 % of control

CCNC(=O)NCCN1CCOCC1
inactive: [2] 95 % of control | [4] 98 % of control | [25] 104 % of control

Cc1ccc([P+](=O)O)cc1Cl
inactive: [22] 100 % of control | [23] 93 % of control | [24] 88 % of control

COc1cc(NC(=O)c2ccc(Cl)cc2Cl)c(OC)cc1Cl
inactive: dose: 50.0 mg/kg/injection, schedule: Q01DX009 (ip), vehicle: saline with Tween-80 90 % of control | [10] 90 % of control | [11] 96 % of control

CN(C)C=NCC1CCCO1 (configuration not stated)
inactive: [22] 97 % of control | [23] 90 % of control | [24] 97 % of control
